In ChEMBL document CHEMBL5214913, “Cysteine proteases as potential targets for anti-trypanosomatid drug discovery” (Bioorg Med Chem, 2021):
Where a SMILES comes first, the peptide text is derived from it. The star is where a group is joined. Cbz = O=C(OCc1ccccc1)*

Key:
Leishmania amazonensis = assay: Antileishmanial activity against Leishmania amazonensis promastigotes assessed as reduction in parasite survival measured after 48 hrs by Neubauer counting chamber based analysis; assay type: functional; details: read-out: LD50 (the source's name)
Trypanosoma cruzi [1] = assay: Antitrypanosomal activity against Trypanosoma cruzi Dm28c epimastigotes assessed as reduction in parasite viability incubated for 48 hrs by trypan blue staining based Neubauer counting chamber analysis; assay type: functional, organism-based
Trypanosoma cruzi [2] = assay: Antitrypanosomal activity against bloodstream Trypanosoma cruzi Y strain trypomastigote assessed as reduction in parasite viability incubated for 24 hrs by Neubauer chamber based analysis; assay type: functional, organism-based
Trypanosoma cruzi [3] = assay: Antiparasitic activity against Trypanosoma cruzi DM28c epimastigotes harboring TcMCA3 assessed reduction in parasite viability incubated for 72 hrs by MTT assay; assay type: functional, organism-based

CC(C)[C@H](NC(=O)OCc1ccccc1)C(=O)N[C@H](C=O)Cc1ccccc1 (Cbz-Val-Phe-aldehyde)
LC50 (Leishmania amazonensis): 23.3 µM
IC50 (Trypanosoma cruzi [1]): 31.7 µM
IC50 (Trypanosoma cruzi [2]): 20.4 µM

C=CCc1cccc(/C=N/NC(=O)CN2CCN(Cc3ccccc3)CC2)c1O [PAC-1]
IC50 (Trypanosoma cruzi [3]): 14 µM
